The text below walks through data of patent publication US20230265151A1, “GIP/GLP1 CO-AGONIST COMPOUNDS” (priority 2020, published 2023).

Like-named read-outs stand apart in the source and are kept apart here.

What all share (format): cell-based
In assay [1] the target is T1, hGCGR (Homo sapiens, UniProt P47871).
T1 construct: expressed in transfected cells
The assay is described as follows: Functional cAMP formation (HTRF) in HEK-293 clonal cells expressing hGCGR, 0.1% bovine casein, without or with 1.0% human serum albumin. An outline of the steps: (§1)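 Readings of the HTRF 665/620 nm ratio, which falls as cAMP rises, were converted to nM cAMP using a standard curve after 30 min peptide exposure at 37° C.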
(Changes in cAMP serve as a functional read-out for many G protein-coupled receptors.)

Assay [2] deals with T2, hGIPR (Homo sapiens, UniProt P48546).
T2 construct: expressed in transfected cells
T2 sequence (P48546 22-466): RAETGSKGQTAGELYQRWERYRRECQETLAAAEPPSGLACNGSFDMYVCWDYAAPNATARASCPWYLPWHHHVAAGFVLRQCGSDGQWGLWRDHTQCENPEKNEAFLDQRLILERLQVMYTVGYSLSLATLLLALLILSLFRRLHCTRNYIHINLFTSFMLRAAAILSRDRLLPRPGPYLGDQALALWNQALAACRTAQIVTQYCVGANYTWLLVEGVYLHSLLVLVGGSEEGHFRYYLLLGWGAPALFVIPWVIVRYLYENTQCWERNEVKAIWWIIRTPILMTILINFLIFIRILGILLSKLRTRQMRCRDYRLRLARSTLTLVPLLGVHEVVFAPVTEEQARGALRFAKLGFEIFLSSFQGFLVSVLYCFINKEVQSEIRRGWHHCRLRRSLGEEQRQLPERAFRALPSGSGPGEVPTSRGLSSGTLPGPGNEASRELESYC
The assay is described as follows: Functional cAMP formation (HTRF) in HEK-293 clonal cells expressing hGIPR, 0.1% bovine casein, without or with 1.0% human serum albumin. Conditions: for EC50: geometric mean; for Emax: read-out: hGIPR Emax, % ± SEM. A digest of the protocol:
as §1

For assay [3], the target named is hGLP-1R (Homo sapiens, UniProt P43220). The assay is described as follows: Functional cAMP formation (HTRF) in HEK-293 clonal cells expressing hGLP-1R, 0.1% bovine casein, without or with 1.0% human serum albumin. More on the design: expressed in transfected cells. Conditions: for EC50: geometric mean. A digest of the protocol: as §1
Where [4] appears, read: 0.1% bovine casein and 1.0% human serum albumin, 37° C., geometric mean, read-out: hGCGR EC50, nM (SEM, n).
Where [5] appears, read: cAMP, incubated at 37° C., 0.1% bovine casein (no human serum albumin), geometric mean, read-out: hGCGR EC50, nM (SEM, n).
Setting [6] is: HEK293, 0.1% bovine casein and 1.0% human serum albumin, 37° C., percent of maximal response to GIP(1-42)NH2.
Where [7] appears, read: HEK293, percent of maximal response to GIP(1-42)NH2, 37° C., 0.1% bovine casein, arithmetic mean.
Setting [8] is: HEK293, percent of maximal response to GLP-1(7-36)NH2, 37° C., 0.1% bovine casein, arithmetic mean, read-out: hGLP-1R Emax, % ± SEM.

T1 sequence (P47871 26-477): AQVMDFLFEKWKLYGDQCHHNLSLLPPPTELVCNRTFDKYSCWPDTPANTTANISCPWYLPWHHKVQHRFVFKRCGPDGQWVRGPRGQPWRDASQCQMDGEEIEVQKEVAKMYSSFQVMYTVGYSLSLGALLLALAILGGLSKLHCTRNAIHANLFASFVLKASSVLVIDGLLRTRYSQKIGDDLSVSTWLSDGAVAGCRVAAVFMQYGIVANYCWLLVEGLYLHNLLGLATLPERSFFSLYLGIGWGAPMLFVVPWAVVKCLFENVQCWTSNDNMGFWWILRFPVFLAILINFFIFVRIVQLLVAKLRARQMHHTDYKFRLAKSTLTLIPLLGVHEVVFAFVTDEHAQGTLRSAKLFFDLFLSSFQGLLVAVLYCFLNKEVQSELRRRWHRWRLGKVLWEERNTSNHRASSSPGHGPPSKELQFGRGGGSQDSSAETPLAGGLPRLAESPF
Chain of hGLP-1R (P43220 24-463): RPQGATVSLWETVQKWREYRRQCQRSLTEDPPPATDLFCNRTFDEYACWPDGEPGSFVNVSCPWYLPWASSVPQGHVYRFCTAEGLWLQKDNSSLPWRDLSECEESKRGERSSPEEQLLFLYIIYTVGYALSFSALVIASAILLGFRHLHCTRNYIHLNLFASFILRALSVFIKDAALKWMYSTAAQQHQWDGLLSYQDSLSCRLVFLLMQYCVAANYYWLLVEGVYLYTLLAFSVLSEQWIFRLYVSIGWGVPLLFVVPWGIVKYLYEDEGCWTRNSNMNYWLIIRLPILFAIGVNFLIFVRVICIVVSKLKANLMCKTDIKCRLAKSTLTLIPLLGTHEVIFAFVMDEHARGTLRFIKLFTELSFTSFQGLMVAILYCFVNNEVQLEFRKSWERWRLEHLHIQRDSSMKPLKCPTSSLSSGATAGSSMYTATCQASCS

The EC50 is the concentration that produces a half-maximal response. For orientation: Emax means the greatest response seen or fitted, relative to the assay's reference. `CC[C@H](C)[C@H](NC(=O)[C@H](CCCN)NC(=O)[C@H](CC(=O)O)NC(=O)[C@H](CC(C)C)NC(=O)[C@](C)(CC(C)C)NC(=O)[C@@H](NC(=O)C(C)(C)NC(=O)[C@H](Cc1ccncc1)NC(=O)[C@H](CC(=O)O)NC(=O)[C@H](CO)NC(=O)[C@@H](NC(=O)[C@](C)(Cc1ccccc1F)NC(=O)[C@@H](NC(=O)CNC(=O)[C@H](CCC(=O)O)NC(=O)C(C)(C)NC(=O)[C@@H](N)Cc1ccc(O)cc1)[C@@H](C)O)[C@@H](C)O)[C@@H](C)CC)C(=O)N[C@@H](C)C(=O)N[C@@H](CCC(N)=O)C(=O)NC(C)(C)C(=O)N[C@@H](CCCCNC(=O)COCCOCCNC(=O)COCCOCCNC(=O)CC[C@H](NC(=O)CCCCCCCCCCOc1ccc(C(=O)O)cc1)C(=O)O)C(=O)N[C@@H](Cc1ccccc1)C(=O)N[C@H](C(=O)N[C@H](CCC(=O)O)C(=O)N[C@@](C)(Cc1ccc(O)cc1)C(=O)N[C@@H](CC(C)C)C(=O)N[C@H](C(=O)N[C@@H](CCCCNC(=O)COCCOCCNC(=O)COCCOCCNC(=O)CC[C@H](NC(=O)CCCCCCCCCCOc1ccc(C(=O)O)cc1)C(=O)O)C(=O)NCC(=O)NCC(=O)N1CCC[C@H]1C(=O)N[C@@H](CO)C(=O)N[C@@H](CO)C(=O)NCC(=O)N[C@@H](C)C(=O)N1CCC[C@H]1C(=O)N1CCC[C@H]1C(=O)N1CCC[C@H]1C(=O)N[C@@H](CO)C(N)=O)[C@@H](C)CC)[C@@H](C)CC` [Example 331]: the EC50 was greater than 9950 nM in assay [1] (hGCGR EC50, nM (SEM, n), cAMP, 37° C., 0.1% bovine casein (no human serum albumin), geometric mean); greater than 9950 nM in assay [1] (hGCGR EC50, nM (SEM, n), cAMP, 37° C., 0.1% bovine casein and 1.0% human serum albumin, geometric mean (SEM, n)); 0.0113 nM in assay [2] (hGIPR EC50, nM (SEM, n), cAMP, 37° C., 0.1% bovine casein (no human serum albumin)); 0.436 nM in assay [3] (hGLP-1R EC50, nM (SEM, n), cAMP, 37° C., 0.1% bovine casein (no human serum albumin)). For the same molecule, the Emax in assay [3] (HEK293, read-out: hGLP-1R Emax, % ± SEM, cAMP, 37° C., 0.1% bovine casein and 1.0% human serum albumin, percent of maximal response to GLP-1(7-36)NH2) came to 114%.
In the case of `CC[C@H](C)[C@H](NC(=O)[C@H](CC(C)C)NC(=O)[C@](C)(Cc1ccccc1)NC(=O)[C@H](CCCCNC(=O)COCCOCCNC(=O)COCCOCCNC(=O)CC[C@H](NC(=O)CCCCCCCCCCCCC(=O)O)C(=O)O)NC(=O)[C@@H](NC(=O)[C@](C)(Cc1ccccc1)NC(=O)[C@H](CCC(=O)O)NC(=O)C(C)(C)NC(=O)[C@H](CCC(N)=O)NC(=O)[C@H](C)NC(=O)[C@H](CCCCNC(=O)COCCOCCNC(=O)COCCOCCNC(=O)CC[C@H](NC(=O)CCCCCCCCCCCCC(=O)O)C(=O)O)NC(=O)[C@H](CCCN)NC(=O)[C@H](CC(=O)O)NC(=O)[C@H](CC(C)C)NC(=O)[C@](C)(CC(C)C)NC(=O)[C@@H](NC(=O)[C@H](CO)NC(=O)[C@@H](NC(=O)[C@H](CC(=O)O)NC(=O)[C@H](CO)NC(=O)[C@@H](NC(=O)[C@](C)(Cc1ccccc1F)NC(=O)[C@@H](NC(=O)CNC(=O)[C@H](CCC(=O)O)NC(=O)C(C)(C)NC(=O)[C@@H](N)Cc1ccc(O)cc1)[C@@H](C)O)[C@@H](C)O)C(C)C)[C@@H](C)CC)[C@@H](C)CC)C(=O)N[C@@H](CCC(=O)O)C(=O)NCC(=O)NCC(=O)N1CCC[C@H]1C(=O)N[C@@H](CO)C(=O)N[C@@H](CO)C(=O)NCC(=O)N[C@@H](C)C(=O)N1CCC[C@H]1C(=O)N1CCC[C@H]1C(=O)N1CCC[C@H]1C(=O)N[C@@H](CO)C(N)=O` [Example 122], the 50% effective concentration (EC50) in assay [1] (hGCGR EC50, nM (SEM, n), cAMP, incubated at 37° C., 0.1% bovine casein (no human serum albumin), geometric mean) was greater than 9950 nM; in assay [2] (hGIPR EC50, nM (SEM, n), cAMP, incubated at 37° C., 0.1% bovine casein (no human serum albumin)), 0.064 nM. The maximal effect (Emax) in assay [3] (HEK293, read-out: hGLP-1R Emax, % ± SEM, percent of maximal response to GLP-1(7-36)NH2, 37° C., 0.1% bovine casein, arithmetic mean) is 94.3%.
As to `CC[C@H](C)[C@H](NC(=O)[C@H](CC(C)C)NC(=O)[C@](C)(Cc1ccc(O)cc1)NC(=O)[C@@H](CCC(=O)O)NC(=O)[C@@H](NC(=O)[C@H](Cc1ccccc1)NC(=O)[C@H](CCC(=O)O)NC(=O)C(C)(C)NC(=O)[C@H](CCC(N)=O)NC(=O)[C@H](C)NC(=O)[C@H](CCCCNC(=O)COCCOCCNC(=O)COCCOCCNC(=O)CC[C@H](NC(=O)CCCCCCCCCCCCC(=O)O)C(=O)O)NC(=O)[C@H](CCCN)NC(=O)[C@H](CC(=O)O)NC(=O)[C@H](CC(C)C)NC(=O)[C@](C)(CC(C)C)NC(=O)[C@@H](NC(=O)[C@](C)(CO)NC(=O)[C@H](Cc1ccncc1)NC(=O)[C@H](CC(=O)O)NC(=O)[C@H](CO)NC(=O)[C@@H](NC(=O)[C@](C)(Cc1ccccc1F)NC(=O)[C@@H](NC(=O)CNC(=O)[C@H](CCC(=O)O)NC(=O)C(C)(C)NC(=O)[C@@H](N)Cc1ccc(O)cc1)[C@@H](C)O)[C@@H](C)O)[C@@H](C)CC)[C@@H](C)CC)C(=O)N[C@@H](CCC(=O)O)C(=O)NCC(=O)NCC(=O)N[C@@H](CCCCNC(=O)COCCOCCNC(=O)COCCOCCNC(=O)CC[C@H](NC(=O)CCCCCCCCCCCCC(=O)O)C(=O)O)C(=O)N[C@@H](CO)C(=O)N[C@@H](CO)C(=O)NCC(=O)N[C@@H](C)C(=O)N1CCC[C@H]1C(=O)N1CCC[C@H]1C(=O)N1CCC[C@H]1C(=O)N[C@@H](CO)C(N)=O` [Example 213], the EC50 in assay [1] (setting [4]) and in assay [1] (setting [5]) was greater than 9950 nM in each case. Further, the figures for the Emax in assay [2] (setting [6]), in assay [2] (setting [7]) and in assay [3] (setting [8]) were 95.6%, 92% and 94.8%, respectively.
On to `CC[C@H](C)[C@H](NC(=O)[C@H](CC(C)C)NC(=O)[C@](C)(Cc1ccc(O)cc1)NC(=O)[C@@H](CCC(=O)O)NC(=O)[C@@H](NC(=O)[C@H](Cc1ccccc1)NC(=O)[C@H](CCCCNC(=O)COCCOCCNC(=O)CC[C@H](NC(=O)CCCc1ccc(C(C)(C)C)cc1)C(=O)O)NC(=O)C(C)(C)NC(=O)[C@H](CCC(N)=O)NC(=O)[C@H](C)NC(=O)[C@H](CCCCNC(=O)COCCOCCNC(=O)CC[C@H](NC(=O)CCCc1ccc(C(C)(C)C)cc1)C(=O)O)NC(=O)[C@H](CCCN)NC(=O)[C@H](CC(=O)O)NC(=O)[C@H](CC(C)C)NC(=O)[C@](C)(CC(C)C)NC(=O)[C@@H](NC(=O)[C@H](CO)NC(=O)[C@H](Cc1ccncc1)NC(=O)[C@H](CC(=O)O)NC(=O)[C@H](CO)NC(=O)[C@@H](NC(=O)[C@](C)(Cc1ccccc1F)NC(=O)[C@@H](NC(=O)CNC(=O)[C@H](CCC(=O)O)NC(=O)C(C)(C)NC(=O)[C@@H](N)Cc1ccc(O)cc1)[C@@H](C)O)[C@@H](C)O)[C@@H](C)CC)[C@@H](C)CC)C(=O)N[C@@H](CCC(=O)O)C(=O)NCC(=O)NCC(=O)N1CCC[C@H]1C(=O)N[C@@H](CO)C(=O)N[C@@H](CO)C(=O)NCC(=O)N[C@@H](C)C(=O)N1CCC[C@H]1C(=O)N1CCC[C@H]1C(=O)N1CCC[C@H]1C(=O)N[C@@H](CO)C(N)=O` [Example 207], for which the EC50 in assay [1] (setting [4]) is greater than 9950 nM; in assay [1] (setting [5]), greater than 9950 nM; in assay [2] (0.1% bovine casein and 1.0% human serum albumin, 37° C., read-out: hGIPR EC50, nM (SEM, n)) it was 0.591 nM; in assay [2] (cAMP, incubated at 37° C., 0.1% bovine casein (no human serum albumin), read-out: hGIPR EC50, nM (SEM, n)), 0.019 nM; in assay [3] (0.1% bovine casein and 1.0% human serum albumin, 37° C., read-out: hGLP-1R EC50, nM (SEM, n)), 2.98 nM; in assay [3] (cAMP, incubated at 37° C., 0.1% bovine casein (no human serum albumin), read-out: hGLP-1R EC50, nM (SEM, n)), 0.209 nM. The Emax in assay [2] (setting [6]) came to 97.9%; in assay [2] (setting [7]), 96.2%; in assay [3] (HEK293, 0.1% bovine casein and 1.0% human serum albumin, 37° C., percent of maximal response to GLP-1(7-36)NH2, read-out: hGLP-1R Emax, % ± SEM), 112%; in assay [3] (setting [8]), 95.1%.
